These results are taken from US7118895B2, “Process for producing aglycon by using diglycosidase and flavor-improved food containing the aglycon and converting agent to be used in the process” (Amano Enzyme Inc., priority 2000, dated 2006).

The test system of this test is Crude diglycosidase. The test can be described thus: Examination of substrate concentration in the conversion into isoflavone aglycons by diglycosidase using soybean materials.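 As to Decomposition efficiency: ratio of each glycoside/aglycon within its isoflavone family: percent of the isoflavone family total.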 The class given is biochemical, Penicillium multicolor IAM7153. To be noted: for Decomposition efficiency: ratio of each glycoside/aglycon within its isoflavone family: soymilk. The procedure: Into 20 mM acetate buffer of pH 4.0 was suspended 0.1 g, 0.25 g, 0.5 g, 1.0 g, or 1.5 g of each of various soybean materials (roasted soy flour (manufactured by Fuji Shokuryo K.K.), soymilk (manufactured by Gitoh Shokuhin K.K.), defatted soybean (manufactured by Fuji Seiyu K.K.), concentrated soybean protein (manufactured by Fuji Seiyu K.K.)). The pH of the suspension was measured and the liquid volume was adjusted to 4.5 mL while the pH was adjusted to 4.0 with 1N hydrochloric acid. An enzyme solution wherein diglycosidase activity of crude diglycosidase was adjusted to 1.88 AU/mL was added thereto in an amount of 0.5 mL, whereby the final liquid volume was 5.0 mL. Namely, the ratio of the soybean material in the reaction mixture was 2%, 5%, 10%, 20%, or 30% (w/v). The whole was reacted at 55° C. under shaking. To 5 mL of the reaction mixture was added 7 mL of ethanol after 0, 1, 3, and 6 hours of the reaction. After ultrasonication, the mixture was thoroughly mixed. It was subjected to centrifugal separation at 2,000 rpm and room temperature for 5 minutes. Then, […] of the supernatant was placed in a 1.5 mL microtube and was subjected to centrifugal separation at 15,000 rpm and 4° C. for 10 minutes. The supernatant was filtered through a filter and each sample was suitably diluted by a factor of 1 to 6 depending on the substrate concentration. Fifty μL of the diluted solution was analyzed by HLPC (Tables 27 to 38).

[1] abbreviates: substrate concentration 2%, heat treatment of enzyme no, reaction time 0 h.
The mark [2] stands for this setting: substrate concentration 2%, heat treatment of enzyme no, reaction time 1 h.
Where [3] appears, read: substrate concentration 2%, heat treatment of enzyme no, reaction time 3 h.
The mark [4] stands for this setting: substrate concentration 2%, heat treatment of enzyme no, reaction time 6 h.
The mark [5] stands for this setting: substrate concentration 2%, heat treatment of enzyme yes, reaction time 6 h.
Setting [6] is: substrate concentration 5%, heat treatment of enzyme no, reaction time 0 h.
Where [7] appears, read: substrate concentration 5%, heat treatment of enzyme no, reaction time 1 h.
The mark [8] stands for this setting: substrate concentration 5%, heat treatment of enzyme no, reaction time 3 h.
The mark [9] stands for this setting: substrate concentration 5%, heat treatment of enzyme no, reaction time 6 h.
Where [10] appears, read: substrate concentration 5%, heat treatment of enzyme yes, reaction time 6 h.
Setting [11] is: substrate concentration 10%, heat treatment of enzyme no, reaction time 0 h.
The mark [12] stands for this setting: substrate concentration 10%, heat treatment of enzyme no, reaction time 1 h.
The mark [13] stands for this setting: substrate concentration 10%, heat treatment of enzyme no, reaction time 3 h.
[14] abbreviates: substrate concentration 10%, heat treatment of enzyme no, reaction time 6 h.
Where [15] appears, read: substrate concentration 10%, heat treatment of enzyme yes, reaction time 6 h.
Setting [16] is: substrate concentration 20%, heat treatment of enzyme no, reaction time 0 h.
The mark [17] stands for this setting: substrate concentration 20%, heat treatment of enzyme no, reaction time 1 h.
[18] abbreviates: substrate concentration 20%, heat treatment of enzyme no, reaction time 3 h.
Where [19] appears, read: substrate concentration 20%, heat treatment of enzyme no, reaction time 6 h.
Setting [20] is: substrate concentration 20%, heat treatment of enzyme yes, reaction time 6 h.
Where [21] appears, read: substrate concentration 30%, heat treatment of enzyme no, reaction time 0 h.
Where [22] appears, read: substrate concentration 30%, heat treatment of enzyme no, reaction time 1 h.
Setting [23] is: substrate concentration 30%, heat treatment of enzyme no, reaction time 3 h.
The mark [24] stands for this setting: substrate concentration 30%, heat treatment of enzyme no, reaction time 6 h.
The mark [25] stands for this setting: substrate concentration 30%, heat treatment of enzyme yes, reaction time 6 h.

As to `CC(=O)OC[C@H]1O[C@@H](Oc2cc(O)c3c(=O)c(-c4ccc(O)cc4)coc3c2)[C@H](O)[C@@H](O)[C@@H]1O` [acetyl-genistin], the “Decomposition efficiency: ratio of each glycoside/aglycon within its isoflavone family” value is “not detected” under setting [1]; “not detected” under setting [2]; “not detected” under setting [3]; “not detected” under setting [4]; “not detected” under setting [5]; “not detected” under setting [6]. The “Decomposition efficiency: ratio of each glycoside/aglycon within its isoflavone family” value under setting [7] was “not detected”; the “Decomposition efficiency: ratio of each glycoside/aglycon within its isoflavone family” value under setting [8] is recorded as “not detected”; the “Decomposition efficiency: ratio of each glycoside/aglycon within its isoflavone family” value under setting [9] was “not detected”; the “Decomposition efficiency: ratio of each glycoside/aglycon within its isoflavone family” value under setting [10] is “not detected”; the “Decomposition efficiency: ratio of each glycoside/aglycon within its isoflavone family” value under setting [11] is listed as 0.5%; the “Decomposition efficiency: ratio of each glycoside/aglycon within its isoflavone family” value under setting [12] is reported as “not detected”. The “Decomposition efficiency: ratio of each glycoside/aglycon within its isoflavone family” value runs as follows: under setting [13], “not detected”; under setting [14], “not detected”; under setting [15], 0.5%; under setting [16], 0.6%; under setting [17], “not detected”; under setting [18], “not detected”. Also, the “Decomposition efficiency: ratio of each glycoside/aglycon within its isoflavone family” value by setting is: under setting [19], “not detected”; under setting [20], 0.6%; under setting [21], 0.6%; under setting [22], “not detected”; under setting [23], “not detected”; under setting [24], “not detected”. For the same molecule, the “Decomposition efficiency: ratio of each glycoside/aglycon within its isoflavone family” value under setting [25] was determined as 0.6%.
Turning to `COc1cc2c(=O)c(-c3ccc(O)cc3)coc2cc1O[C@@H]1O[C@H](COC(C)=O)[C@@H](O)[C@H](O)[C@H]1O` [acetyl-glycitin], the “Decomposition efficiency: ratio of each glycoside/aglycon within its isoflavone family” value by setting is: under setting [1], “not detected”; under setting [2], “not detected”; under setting [3], “not detected”; under setting [4], “not detected”; under setting [5], “not detected”; under setting [6], “not detected”. In addition, the “Decomposition efficiency: ratio of each glycoside/aglycon within its isoflavone family” value under setting [7] is “not detected”; the “Decomposition efficiency: ratio of each glycoside/aglycon within its isoflavone family” value under setting [8] is reported as “not detected”; the “Decomposition efficiency: ratio of each glycoside/aglycon within its isoflavone family” value under setting [9] is given as “not detected”; the “Decomposition efficiency: ratio of each glycoside/aglycon within its isoflavone family” value under setting [10] is “not detected”; the “Decomposition efficiency: ratio of each glycoside/aglycon within its isoflavone family” value under setting [11] is recorded as “not detected”; the “Decomposition efficiency: ratio of each glycoside/aglycon within its isoflavone family” value under setting [12] was “not detected”. Moreover, the “Decomposition efficiency: ratio of each glycoside/aglycon within its isoflavone family” value is reported as “not detected” under setting [13]; “not detected” under setting [14]; “not detected” under setting [15]; “not detected” under setting [16]; “not detected” under setting [17]; “not detected” under setting [18]. In addition, the “Decomposition efficiency: ratio of each glycoside/aglycon within its isoflavone family” value under setting [19] was “not detected”; the “Decomposition efficiency: ratio of each glycoside/aglycon within its isoflavone family” value under setting [20] is on record as “not detected”; the “Decomposition efficiency: ratio of each glycoside/aglycon within its isoflavone family” value under setting [21] is reported as “not detected”; the “Decomposition efficiency: ratio of each glycoside/aglycon within its isoflavone family” value under setting [22] was “not detected”; the “Decomposition efficiency: ratio of each glycoside/aglycon within its isoflavone family” value under setting [23] is reported as “not detected”; the “Decomposition efficiency: ratio of each glycoside/aglycon within its isoflavone family” value under setting [24] is “not detected”. Under setting [25], the “Decomposition efficiency: ratio of each glycoside/aglycon within its isoflavone family” value was “not detected”.
`O=c1c(-c2ccc(O)cc2)coc2cc(O[C@@H]3O[C@H](CO)[C@@H](O)[C@H](O)[C@H]3O)cc(O)c12` [genisitin]: the “Decomposition efficiency of genistin family in defatted soybean” value by setting is: under setting [1], 37.7; under setting [2], “not detected”; under setting [3], “not detected”; under setting [4], “not detected”; under setting [5], 38.7; under setting [6], 40.0. The “Decomposition efficiency of genistin family in defatted soybean” value is, setting by setting: under setting [7], “not detected”; under setting [8], “not detected”; under setting [9], “not detected”; under setting [10], 41.8; under setting [11], 42.4; under setting [12], “not detected”. For the same molecule, the “Decomposition efficiency of genistin family in defatted soybean” value runs as follows: under setting [13], “not detected”; under setting [14], “not detected”; under setting [15], 44.3.
